Measured values as given in the NIST ThermoML archive (doi:10.1016/j.tca.2014.03.019).
± gives the expanded uncertainty stated by the source.

Key:
[1] = Crystal; for vapor or sublimation pressure: Transpiration method; for Normal melting temperature: DTA
[2] = Molar enthalpy of transition or fusion; details: Crystal; DSC

CC(=O)Nc1ccccc1C(=O)O [2-acetamidobenzoic acid]
[1]
Details	vapor or sublimation pressure [kPa]
344.7 K	1.66e-05 ± 9e-07
351.3 K	3.37e-05 ± 1.8e-06
357.3 K	5.58e-05 ± 2.9e-06
363.5 K	0.000111 ± 6e-06
363.8 K	0.000116 ± 6e-06
366.2 K	0.000138 ± 7e-06
369.7 K	0.000235 ± 1.2e-05
371 K	0.000243 ± 1.2e-05
373.5 K	0.000289 ± 1.5e-05
377.4 K	0.000555 ± 2.8e-05
380 K	0.000571 ± 2.9e-05
383.8 K	0.000948 ± 4.8e-05
387.2 K	0.00117 ± 6e-05
390.4 K	0.00152 ± 8e-05
393.5 K	0.00198 ± 0.0001

Details	Molar enthalpy of transition or fusion [kJ/mol]	Normal melting temperature [°C]
[1]	–	185.2 ± 1.1
[2]	49.4 ± 1	–

CC(=O)Nc1ccc(C(=O)O)cc1 [4-acetamidobenzoic acid]
[1]
Details	vapor or sublimation pressure [kPa]
395 K	1.43e-05 ± 8e-07
398.2 K	2.1e-05 ± 1.2e-06
398.5 K	2.09e-05 ± 1.1e-06
402.5 K	2.92e-05 ± 1.6e-06
405.5 K	3.48e-05 ± 1.8e-06
409.1 K	5.24e-05 ± 2.7e-06
412.1 K	6.72e-05 ± 3.5e-06
415.3 K	0.0001 ± 5e-06
418.9 K	0.000126 ± 6e-06
422.1 K	0.000193 ± 1e-05
425 K	0.000227 ± 1.1e-05
428.5 K	0.000352 ± 1.8e-05
431.7 K	0.000393 ± 2e-05
436.2 K	0.000775 ± 3.9e-05
440 K	0.000934 ± 4.7e-05

Details	Molar enthalpy of transition or fusion [kJ/mol]	Normal melting temperature [°C]
[1]	–	262.1 ± 2.1
[2]	34.2 ± 0.8	–

CC(=O)Nc1cccc(C(=O)O)c1 [3-(acetylamino)benzoic acid]
[1]
Details	vapor or sublimation pressure [kPa]
407.2 K	2.67e-05 ± 1.4e-06
410.9 K	4.67e-05 ± 2.4e-06
414.1 K	5.62e-05 ± 2.9e-06
416.6 K	6.27e-05 ± 3.2e-06
420.9 K	0.000102 ± 5e-06
423.6 K	0.000114 ± 6e-06
426.8 K	0.000148 ± 8e-06
427.3 K	0.000187 ± 1e-05
430.6 K	0.000246 ± 1.2e-05
433 K	0.000315 ± 1.6e-05
434.8 K	0.000374 ± 1.9e-05
436.1 K	0.000403 ± 2e-05
440.1 K	0.00051 ± 2.6e-05
442.9 K	0.000663 ± 3.3e-05

Details	Molar enthalpy of transition or fusion [kJ/mol]	Normal melting temperature [°C]
[1]	–	245.1 ± 2.1
[2]	39.4 ± 0.9	–
